What is called Vd is a proportionality between amount in the body and measured concentration, not a real space. Read a high Vd as wide distribution into tissue. The term half-life denotes how long it takes for the measured level to halve. A higher half-life goes with slow loss. The term bioavailability denotes the share of a dose that reaches the circulation, judged against a reference dose that is usually intravenous. A word on the pKa: it is the pH at which an ionisable group is half protonated. A higher pKa goes with a group that holds its proton tightly. For orientation: clearance means a measure of how efficiently the substance is removed, as volume per time. The low end stands for inefficient removal, the high end for efficient removal.

Each structure is given as a SMILES string. Where “and” joins values, the source holds several entries; their conditions need not be identical. Identical values can stand only once.

These results are taken from ChEMBL document CHEMBL1139246, “Pyridine-3-carboxamides as novel CB(2) agonists for analgesia” (Bioorg Med Chem Lett, 2009).

Test system in the first data set: not listed separately
Description: Volume of distribution in rat at 1 mg/kg, iv. The data set is classed as ADME, organism-based. Also on record: dose 1 mg/kg, route intravenous. The settings on record: in vivo.
`O=C(NCC1CCOCC1)c1cnc(Nc2ccc(Cl)cc2Cl)cc1C1CC1`: the Vd stood at 2.4 L/kg.

Test system in the next data set: not listed separately
Description: Half life in rat at 1 mg/kg, iv. Type of data set: ADME, organism-based. The conditions noted are these: in vivo. On the set-up: dose 1 mg/kg, route intravenous.
As for `O=C(NCC1CCOCC1)c1cnc(Nc2ccc(Cl)cc2Cl)cc1C1CC1`, the half-life was 3.1 h.

Test system in the next data set: not listed separately
Nature of the data set: Oral bioavailability in rat at 3 mg/kg. The data set is classed as ADME, organism-based. The settings on record: in vivo.
In turn, `O=C(NCC1CCOCC1)c1cnc(Nc2ccc(Cl)cc2Cl)cc1C1CC1` registered a bioavailability of 39%.

For the next data set, the system named is Rattus norvegicus. Nature of the data set: Dose normalized AUC (0 to t) in rat at 30 mg/kg, po after 6 hrs. Also on record: time < 6 hr, dose 30 mg/kg, route oral. The conditions noted are these: in vivo. The data set is classed as ADME, organism-based.
Take `O=C(NCC1CCOCC1)c1cnc(Nc2cccc(Br)c2)cc1C1CC1`: the AUC came to 5 kg·min/L.
Same read-out and setting: the value for `O=C(NCC1CCOCC1)c1cnc(Nc2cccc(OC(F)(F)F)c2)cc1C1CC1` was 3 kg·min/L; that for `CC(C)(C)c1cc(Nc2ccc(Cl)cc2Cl)ncc1C(=O)NCC1CCOCC1` was 16 kg·min/L.
`O=C(NCC1CCOCC1)c1cnc(Nc2ccc(Cl)cc2Cl)cc1C1CC1`: the AUC turned out to be 15 kg·min/L.

Test system in a further data set: not listed separately
Description: Dissociation constant, pKa of the compound. The data set is classed as physicochemical.
Conditions: not given
On to `Cc1cc(Cl)ccc1Nc1cc(C(F)(F)F)c(C(=O)NCC2CCOCC2)cn1`, for which the pKa is 2.63.
The same measure, in the same setting: the value for `CC(C)c1cc(Nc2cccc(Cl)c2)ncc1C(=O)NCC(C)(C)C` was 6.02; that for `COc1ccc(Cl)cc1Nc1cc(C(F)(F)F)c(C(=O)NCC2CCOCC2)cn1` was 2.63; that for `O=C(NCC1CCCC1)c1cnc(Nc2ccc(Cl)cc2Cl)cc1C(F)(F)F` was 2.63.
Molecule `CC(C)c1cc(Nc2cccc(Cl)c2)ncc1C(=O)NC1CCOCC1` registered a pKa of 6.02.
The same measure, in the same setting: the value for `CC(C)c1cc(Nc2cccc(Cl)c2)ncc1C(=O)NCC1CCCC1` was 6.02.
Same read-out and setting: the value for `CC(C)c1cc(Nc2cccc(Br)c2)ncc1C(=O)NCC1CCOCC1` was 6.02.
Still for that read-out and setting: the value for `O=C(NCc1ccc(F)cc1)c1cnc(Nc2cccc(Br)c2)cc1C(F)(F)F` was 2.63; that for `CC(C)c1cc(Nc2cccc(Cl)c2)ncc1C(=O)NCc1ccc(F)cc1` was 6.02.
Turning to `CC(C)CNC(=O)c1cnc(Nc2cccc(Cl)c2)cc1C(C)C`, the pKa was determined as 6.02.
Same read-out and setting: the value for `O=C(NCC1CCOCC1)c1cnc(Nc2ccc(Cl)cc2Cl)cc1C(F)(F)F` was 2.63.
The same measure, in the same setting: the value for `CC(C)c1cc(Nc2cccc(Cl)c2)ncc1C(=O)NCC1CCOCC1` was 6.02.
On the same count and under the same terms, the value for `NC(=O)c1ccc(CNC(=O)c2cnc(Nc3cccc(Cl)c3)cc2C(F)(F)F)cc1` was 2.63; that for `CC(C)c1cc(Nc2ccc(Cl)cc2Cl)ncc1C(=O)NCC1CCOCC1` was 6.02.
In turn, `O=C(NCC1CCOCC1)c1cnc(Nc2cccc(Cl)c2)cc1C(F)(F)F` returned a pKa of 2.63.
`Cc1cccc(Nc2cc(C(C)C)c(C(=O)NCC3CCC3)cn2)c1` displayed a pKa of 6.02.
The same measure, in the same setting: the value for `COc1cccc(Nc2cc(C(C)C)c(C(=O)NCC3CCOCC3)cn2)c1` was 6.02.
In the case of `CCC(CC)CNC(=O)c1cnc(Nc2cccc(Cl)c2)cc1C(C)C`, the pKa came to 6.02.
In turn, `O=C(NCC1CCCCC1)c1cnc(Nc2cccc(Cl)c2)cc1C(F)(F)F` gave a pKa of 2.63.
On the same count and under the same terms, the value for `COc1ccc(Cl)cc1Nc1cc(C(F)(F)F)c(C(=O)NCC2CCC2)cn1` was 2.63; that for `O=C(NCC1CCOCC1)c1cnc(Nc2cccc(F)c2)cc1C(F)(F)F` was 2.63.
Regarding `CC(C)c1cc(Nc2ccc(C#N)c(Cl)c2)ncc1C(=O)NCC1CCOCC1`, the pKa was determined as 6.02.
Molecule `CC(C)c1cc(Nc2cccc(C(F)(F)F)c2F)ncc1C(=O)NCC1CCOCC1` showed a pKa of 6.02.
On the same count and under the same terms, the value for `Cc1cccc(Nc2cc(C(C)C)c(C(=O)NCC3CCOCC3)cn2)c1` was 6.02; that for `CC(C)c1cc(Nc2cccc(C#N)c2)ncc1C(=O)NCC1CCOCC1` was 6.02.

Test system in another data set: not listed separately
Description: Clearance in rat at 1 mg/kg, iv. The conditions noted are these: in vivo. Also on record: dose 1 mg/kg, route intravenous. The data set is classed as ADME, organism-based.
As to `O=C(NCC1CCOCC1)c1cnc(Nc2ccc(Cl)cc2Cl)cc1C1CC1`, the clearance is 14 mL/min/kg and 14 mL/min.
